From ChEMBL document CHEMBL1143946, “Docking analyses on human muscarinic receptors: unveiling the subtypes peculiarities in agonists binding” (Bioorg Med Chem, 2008) come the findings set out here.

Assay in all cases: biochemical
Test [1] has as its target T1, Muscarinic acetylcholine receptor M1 (Homo sapiens, UniProt P11229).
T1 sequence (P11229 whole entry): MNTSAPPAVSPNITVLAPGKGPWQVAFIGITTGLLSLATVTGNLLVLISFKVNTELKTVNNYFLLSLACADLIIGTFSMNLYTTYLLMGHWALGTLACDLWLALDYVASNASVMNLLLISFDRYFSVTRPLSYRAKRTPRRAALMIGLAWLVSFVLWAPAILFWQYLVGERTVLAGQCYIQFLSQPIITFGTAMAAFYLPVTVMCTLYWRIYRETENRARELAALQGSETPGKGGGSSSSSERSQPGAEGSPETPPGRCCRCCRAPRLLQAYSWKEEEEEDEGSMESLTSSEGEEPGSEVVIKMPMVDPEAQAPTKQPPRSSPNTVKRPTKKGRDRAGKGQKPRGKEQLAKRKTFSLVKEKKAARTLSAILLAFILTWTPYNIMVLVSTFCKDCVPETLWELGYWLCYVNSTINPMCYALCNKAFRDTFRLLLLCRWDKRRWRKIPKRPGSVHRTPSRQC

Test [2] deals with T2, Muscarinic acetylcholine receptor M2 (Homo sapiens, UniProt P08172).
T2 sequence (P08172 whole entry): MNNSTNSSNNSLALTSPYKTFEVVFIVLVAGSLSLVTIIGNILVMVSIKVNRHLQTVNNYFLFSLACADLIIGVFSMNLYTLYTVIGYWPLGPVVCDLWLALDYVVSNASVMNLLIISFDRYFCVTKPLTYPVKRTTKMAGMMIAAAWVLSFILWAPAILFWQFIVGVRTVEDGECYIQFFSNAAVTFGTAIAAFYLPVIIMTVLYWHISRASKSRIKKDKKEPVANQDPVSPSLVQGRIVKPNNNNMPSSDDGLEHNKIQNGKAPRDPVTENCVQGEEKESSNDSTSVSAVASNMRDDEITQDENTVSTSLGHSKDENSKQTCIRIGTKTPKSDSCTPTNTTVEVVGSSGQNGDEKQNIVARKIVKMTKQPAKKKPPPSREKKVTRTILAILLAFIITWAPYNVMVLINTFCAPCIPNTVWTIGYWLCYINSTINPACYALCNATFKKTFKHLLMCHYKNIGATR

Test [3] concerns the target T3, Muscarinic acetylcholine receptor M5 (Homo sapiens, UniProt P08912).
T3 sequence (P08912 whole entry): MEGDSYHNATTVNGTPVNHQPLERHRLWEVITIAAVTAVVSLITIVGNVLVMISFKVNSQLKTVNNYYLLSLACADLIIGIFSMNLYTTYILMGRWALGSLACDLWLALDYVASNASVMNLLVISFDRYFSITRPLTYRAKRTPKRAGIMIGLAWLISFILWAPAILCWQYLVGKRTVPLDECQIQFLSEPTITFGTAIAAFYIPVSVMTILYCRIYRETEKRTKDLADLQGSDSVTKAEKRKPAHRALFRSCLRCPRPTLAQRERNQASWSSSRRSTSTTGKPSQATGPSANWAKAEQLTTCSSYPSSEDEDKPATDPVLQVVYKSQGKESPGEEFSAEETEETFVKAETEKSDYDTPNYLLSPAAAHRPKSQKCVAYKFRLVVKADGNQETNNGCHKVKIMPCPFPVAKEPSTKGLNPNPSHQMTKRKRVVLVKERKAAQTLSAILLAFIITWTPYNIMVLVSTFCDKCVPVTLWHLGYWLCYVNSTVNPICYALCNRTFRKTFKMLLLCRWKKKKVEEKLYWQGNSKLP
Description: Binding affinity to human cloned muscarinic M5 receptor expressed in CHO cells

In general, Ki refers to the equilibrium dissociation constant of an inhibitor or competing ligand from its target. Turning to `C[C@@H]1O[C@H]([C@@H]2CCC[N+]2(C)C)CS1`, the Ki in test [1] is 14.1 µM; in test [2] it was 3.55 µM; in test [3], 23.4 µM.
Regarding `C[C@H]1O[C@@H]([C@@H]2CCC[N+]2(C)C)C[S+]1[O-]` (some centres not stated), in test [2], affinity was put at a Ki of 77.6 µM.
For `C[C@@H]1O[C@H](C[N+](C)(C)C)CS1`, the Ki in test [1] is 11 µM; in test [2], 2.09 µM; in test [3], 13.2 µM.
In the case of `Cc1nccn1CC#CCN1CCCC1=O`, the Ki in test [1] is 0.12 µM; in test [2], 0.102 µM; in test [3], 0.0513 µM.
Turning to `C[C@H]1O[C@@H]([C@H]2CCC[N+]2(C)C)CS1`, the Ki in test [1] is 5.89 µM; in test [2], 1.41 µM; in test [3], 10.7 µM.
Taken in the same sequence, the figures for `Cc1nccn1CC#CCOc1ccon1` were 0.0912 µM, 0.00363 µM and 0.00617 µM.
Taken in the same sequence, the figures for `C[C@H]1OC[C@@H](C[N+](C)(C)C)O1` were 11 µM, 1.2 µM and 21.9 µM.
Regarding `C[C@H]1O[C@@H]([C@@H]2CCC[N+]2(C)C)CS1`, the Ki was 8.32 µM in test [1], 0.676 µM in test [2] and 10.2 µM in test [3].
As to `C[C@@H]1O[C@H]([C@@H]2CCC[N+]2(C)C)C[S+]1[O-]` (stereo in doubt; 11), the Ki in test [1] is 93.3 µM; in test [2], 15.5 µM; in test [3], 33.9 µM.
For the compound `O=C1CCCN1CC#CCN1CCCC1` [OXOTREMORINE], the Ki in test [1] is 0.00112 µM; in test [2] it was 0.324 µM.
Turning to `C[C@H]1OC[C@@H]([C@H]2CCC[N+]2(C)C)O1`, the Ki is 52.5 µM in test [1], 5.01 µM in test [2] and 52.5 µM in test [3].
With `CC(=O)OC1CC2CCCC1N2C` (configuration not stated), the results for the Ki in test [1] and in test [2] were 282 µM and 2.75 µM, respectively.
As for `C[C@@H]1O[C@H]([C@@H]2CCC[N+]2(C)C)C[S+]1[O-]` (stereo in doubt; 12), the Ki was 81.3 µM in test [2] and 57.5 µM in test [3].
For the compound `CO/N=C/C1=CCCN(C)C1` [MILAMELINE], the Ki was 5.62 µM in test [1], 1 µM in test [2] and 3.16 µM in test [3].
`C[C@@H]1O[C@H]([C@@H]2CCC[N+]2(C)C)C[S+]1[O-]` (stereo in doubt; 9) showed a Ki in test [2] of 9.33 µM.
For `C[C@H]1OC[C@@H]([C@@H]2CCC[N+]2(C)C)O1`, the Ki is 21.4 µM in test [1], 1.7 µM in test [2] and 22.9 µM in test [3].
The like results for `C[C@@H]1O[C@H]([C@H]2CCC[N+]2(C)C)CS1` were, in that order, 19.1 µM, 5.25 µM and 24.5 µM.
For the compound `C[C@H]1COC[C@@H](C[N+](C)(C)C)O1`, the Ki in test [2] was 37.2 µM; in test [3], 3.72 µM.
Take `C[N+](C)(C)CC#CCN1CCCC1=O` [OXOTREMORINE METHIODIDE]: the figures for the Ki in test [1] and in test [2] were 20.4 µM and 0.107 µM, respectively.
The like results for `CO/N=C(\C#N)[C@H]1CN2CCC1CC2` [SABCOMELINE] were, in that order, 0.229 µM and 0.204 µM.
On to `CC(=O)OC1CC2CCCC1N2` (configuration not stated), for which the values for the Ki in test [1] and in test [2] were 21.4 µM and 0.00263 µM, respectively.
